According to patent US7655784B2, “Trans-sialidases obtained from Trypanosoma congolense” (N.V. Nutricia, priority 2002, dated 2010):

What was measured:
[1] = system: trans-sialidase TS2; experiment: Trans-sialidase transfer activity of TS2 in the presence of salts, metal ions and putative inhibitors; format: biochemical, Trypanosoma congolense; settings: for Effect of putative inhibitors: 10 mM; for Salt effect: reduction of enzyme activity: 1M salt, de-salting produces enzyme activity again
Experimental: (§1) In order to determine the transfer activity of the trans-sialidase, 25 μl enzyme solution in 50 mM BisTris buffer, pH7.0, are incubated together with 1 mM NeufAc-α(2-3) lactose as a donor and 0.5 mM 4-methylumbelliferyl galactoside as an acceptor in a final volume of 50 μl at 37° C. for 2 hrs. The incubation is halted by adding 1 ml ice cold water. The reaction batch is then introduced to columns previously filled with 0.3 ml Q Sepharose FF (acetate form) and pre-equilibrated with water. After having washed out the acceptor with water and having discarded the dead volume (200 μl 1N HCl), the sialated product is eluated with 1N HCl (700 μl). Following acid hydrolysis of the product at 95° C. for 45 mins and cooling on ice, the probe is neutralised with 250-290 μl 2 N NaOH and 300 μl 1M glycin/NaOH buffer pH 10.0. The fluorescence of the released methylumbelliferone is measured in black 96 well plates (Microfluor, Dynex, U.S.A.) with a stimulation wave length of 365 nm and an emission wave length of 450 nm. The activity of the enzyme corresponds to the intensity of the fluorescence measured and can be read off on a previously established calibration curve (method in accordance with Engstler et al. 1992).

[2] = system: trans-sialidase TS1; experiment: Trans-sialidase transfer activity of TS1 in the presence of salts, metal ions and putative inhibitors; format: biochemical, Trypanosoma congolense; settings: for Effect of putative inhibitors: 10 mM; for Salt effect: reduction of enzyme activity: 1M salt, de-salting produces enzyme activity again
Experimental: as §1

`[Fe+2]` [Fe^2+] was tested, and the “Effect of metal ions” value ([1]; 5 mM) was “Cu^2+, Zn^2+, Fe^2+, Co^2+: little effect” and the “Effect of metal ions” value ([2]; 5 mM) was “Cu^2+, Zn^2+, Fe^2+, Co^2+: little effect”.

`[Mn+2]` [Mn^2+] was tested, and the “Effect of metal ions” value ([1]; 20 mM) was 20 mM Ca^2+, Mg^2+, Mn^2+: no effect 5 mM and the “Effect of metal ions” value ([2]; 20 mM) was 20 mM Ca^2+, Mg^2+, Mn^2+: no effect 5 mM.

With `[Zn+2]` [Zn^2+] the “Effect of metal ions” value ([1]; 5 mM) was “Cu^2+, Zn^2+, Fe^2+, Co^2+: little effect” and the “Effect of metal ions” value ([2]; 5 mM) was “Cu^2+, Zn^2+, Fe^2+, Co^2+: little effect”.

With `CC(=O)N[C@H]1[C@H]([C@H](O)[C@H](O)CO)OC(C(=O)O)=C[C@@H]1O` [N-acetyl-2,3-didehydro-2-deoxyneuraminic acid, reference compound] the “Effect of putative inhibitors” value [1] was “acid: little inhibition” and the “Effect of putative inhibitors” value [2] was “acid: little inhibition”.

`[Cu+2]` [Cu^2+] was tested, and the “Effect of metal ions” value ([1]; 5 mM) was “Cu^2+, Zn^2+, Fe^2+, Co^2+: little effect” and the “Effect of metal ions” value ([2]; 5 mM) was “Cu^2+, Zn^2+, Fe^2+, Co^2+: little effect”.

With `[Mg+2]` [Mg^2+] the “Effect of metal ions” value ([1]; 20 mM) was 20 mM Ca^2+, Mg^2+, Mn^2+: no effect 5 mM and the “Effect of metal ions” value ([2]; 20 mM) was 20 mM Ca^2+, Mg^2+, Mn^2+: no effect 5 mM.

In the case of `O=C(O)C(=O)Nc1ccc([N+](=O)[O-])cc1` [N-(4-nitrophenyl)oxamic acid, reference compound], the “Effect of putative inhibitors” value [1] is reported as 10 mM N-(4-nitrophenyl)oxamic acid: little and the “Effect of putative inhibitors” value [2] is reported as 10 mM N-(4-nitrophenyl)oxamic acid: little.

With `[Cl-].[Na+]` [NaCl] the “Salt effect: reduction of enzyme activity” value (shortened to “Salt effect: reduction”) [1] was “enzymes by 50%, de-salting produces enzyme” and the “Salt effect: reduction” value [2] was “enzymes by 50%, de-salting produces enzyme”.

In the case of `[Cl-].[K+]` [KCl], the “Salt effect: reduction” value [1] is reported as “enzymes by 50%, de-salting produces enzyme” and the “Salt effect: reduction” value [2] is reported as “enzymes by 50%, de-salting produces enzyme”.

With `[Ca+2]` [Ca^2+] the “Effect of metal ions” value ([1]; 20 mM) was 20 mM Ca^2+, Mg^2+, Mn^2+: no effect 5 mM and the “Effect of metal ions” value ([2]; 20 mM) was 20 mM Ca^2+, Mg^2+, Mn^2+: no effect 5 mM.

`[Co+2]` [Co^2+] was tested, and the “Effect of metal ions” value ([1]; 5 mM) was “Cu^2+, Zn^2+, Fe^2+, Co^2+: little effect” and the “Effect of metal ions” value ([2]; 5 mM) was “Cu^2+, Zn^2+, Fe^2+, Co^2+: little effect”.
